The results in this text go back to patent US20170000775A1, “PHARMACEUTICAL COMPOSITIONS COMPRISING ANTIBACTERIAL AGENTS” (priority 2014, published 2017).

Counter-ions that a name gives are not always drawn.

Experiment [1] relates to A. baumannii NCTC 13303 producing CHDL oxacillinase [OXA-26] beta-lactamase enzymes. The experiment in a line: Time kill study against A. baumannii NCTC 13303. It counts as cell-based, Acinetobacter baumannii. The following applies: sulbactam 8 mcg/ml, sodium salt of Formula (I) 4 mcg/ml, imipenem 8 mcg/ml; for Bacterial count, 0 hour: 0 hour (initial inoculum); for Bacterial count, 0 hour / Bacterial count, 2 hour / Bacterial count, 4 hour / Bacterial count, 6 hour / Bacterial count, 8 hour: alone or combined as labelled; for Effect on bacterial count (in words): throughout the duration of the study. On the procedure:
(§1) In a typical time kill study, the freshly grown cultures were diluted to the required cell density (initial starting inoculum) in Cation adjusted Muller Hinton broth medium (BD, USA). The antibacterial agents (either alone or in combination) at the required concentrations were added into the culture-containing medium. The samples were incubated under shaking condition (120 rpm) at 37° C. Enumeration of viable bacterial count was done every 2 hour by diluting in normal saline and plating on to the Tryptic Soya Agar plates (BD, USA). The plates were incubated for 24 hours to arrive at the viable bacterial count. […] In general, the decrease of 1 Log CFU/ml, corresponds to 90% killing of bacteria. Similarly, 2 Log CFU/ml reductions indicates to 99% killing of bacteria and 3 Log CFU/ml reductions is equal to 99.9% killing of bacteria.
(§2) The assay without any antibacterial agent was taken as control. The sodium salt of a compound of Formula (I), was used for antibacterial testing.

The subject of experiment [2] is A. baumannii NCTC 13302 producing CHDL oxacillinase [OXA-25] beta-lactamase enzymes. The experiment is described as follows: Time kill study against A. baumannii NCTC 13302. The conditions noted are these: sulbactam 8 mcg/ml, sodium salt of Formula (I) 4 mcg/ml, imipenem 16 mcg/ml; for Bacterial count, 0 hour: 0 hour (initial inoculum); for Bacterial count, 0 hour / Bacterial count, 2 hour / Bacterial count, 4 hour / Bacterial count, 6 hour / Bacterial count, 8 hour: alone or combined as labelled; for Effect on bacterial count (in words): throughout the duration of the study. It counts as cell-based, Acinetobacter baumannii. As to the method: as §1, §2

Consider `C[C@@H](O)[C@H]1C(=O)N2C(C(=O)O)=C(SCCN=CN)C[C@H]12` [Imipenem, imipenem], for which, in experiment [1], the “Bacterial count, 0 hour” value is given as 6.17 Log10CFU/ml; the “Bacterial count, 2 hour” value was found to be 7.84 Log10CFU/ml; the “Bacterial count, 4 hour” value is listed as 8.13 Log10CFU/ml; the “Bacterial count, 6 hour” value is 8.26 Log10CFU/ml. For the same molecule, the “Bacterial count, 8 hour” value in experiment [1] is listed as 8.23 Log10CFU/ml. In experiment [2], the “Bacterial count, 0 hour” value is reported as 6.36 Log CFU/ml; the “Bacterial count, 2 hour” value is listed as 7.74 Log CFU/ml; the “Bacterial count, 4 hour” value is 8 Log CFU/ml; the “Bacterial count, 6 hour” value is reported as 8.32 Log CFU/ml. Also, the “Bacterial count, 8 hour” value in experiment [2] is on record as 8.74 Log CFU/ml.

On to `N#C[C@@H]1CC[C@@H]2CN1C(=O)N2OS(=O)(=O)O` [Sodium salt of a compound of Formula (I), sulphuric acid, mono[(1R,2S,5R)-2-cyano-7-oxo-1,6-diazabicyclo[3.2.1]oct-6-yl] ester, sodium salt (1:1)], for which, in experiment [1], the “Bacterial count, 0 hour” value was determined as 6.17 Log10CFU/ml; the “Bacterial count, 2 hour” value amounted to 7.6 Log10CFU/ml; the “Bacterial count, 4 hour” value amounted to 7.9 Log10CFU/ml; the “Bacterial count, 6 hour” value was 7.95 Log10CFU/ml. In addition, in experiment [1], the “Bacterial count, 8 hour” value is 8.1 Log10CFU/ml and the “Effect on bacterial count (in words)” value is recorded as “not effective to decrease the bacterial count”. Further, in experiment [2], the “Bacterial count, 0 hour” value is recorded as 6.36 Log CFU/ml; the “Bacterial count, 2 hour” value came out at 7.8 Log CFU/ml; the “Bacterial count, 4 hour” value is recorded as 8.0 Log CFU/ml; the “Bacterial count, 6 hour” value is listed as 8.1 Log CFU/ml. In experiment [2], the “Bacterial count, 8 hour” value is given as 8.15 Log CFU/ml and the “Effect on bacterial count (in words)” value is “not effective to decrease the bacterial count”.

As for `CC1(C)[C@H](C(=O)O)N2C(=O)C[C@H]2S1(=O)=O` [Sulbactam, sulbactam], in experiment [1], the “Bacterial count, 0 hour” value was 6.17 Log10CFU/ml; the “Bacterial count, 2 hour” value is 7.32 Log10CFU/ml; the “Bacterial count, 4 hour” value turned out to be 7.56 Log10CFU/ml; the “Bacterial count, 6 hour” value was 7.81 Log10CFU/ml. In addition, in experiment [1], the “Bacterial count, 8 hour” value was determined as 7.81 Log10CFU/ml and the “Effect on bacterial count (in words)” value is given as “not effective to decrease the bacterial count”. Also, in experiment [2], the “Bacterial count, 0 hour” value is 6.36 Log CFU/ml; the “Bacterial count, 2 hour” value was found to be 6.81 Log CFU/ml; the “Bacterial count, 4 hour” value was 7.4 Log CFU/ml; the “Bacterial count, 6 hour” value was 7.65 Log CFU/ml. Further, in experiment [2], the “Bacterial count, 8 hour” value is listed as 7.31 Log CFU/ml and the “Effect on bacterial count (in words)” value is given as “not effective to decrease the bacterial count”.
